From PubChem BioAssay AID1963842 (Molecular Pharmacology Branch, DTP, NCI, 2024)

System: 677734-321-R-J1-PDC complex spheroid viability
Test: Anticancer human tumor 677734-321-R-J1-PDC patient-derived soft tissue sarcoma cell line growth inhibition [POLQ]
Conditions: for IC50: curve of first compound; for viability, T/C: stronger effect = lower value
Procedure, shortened: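 Patient-derived tumour cells were co-cultured with HUVEC and mesenchymal stem cells as multicellular spheroids at 37 °C. They were treated with POLQ inhibitors (novobiocin, ART-558, RP6685) alone or combined with other agents. Top concentrations were at or near clinical Cmax (otherwise 10 microM; SN-38 at 1 microM), decreasing in half-log steps.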

[1] = second compound 0.0316 µM, first compound 0.0316 µM
[2] = second compound 0.0316 µM, first compound 0.1 µM
[3] = second compound 0.0316 µM, first compound 0.316 µM
[4] = second compound 0.0316 µM, first compound 1 µM
[5] = second compound 0.0316 µM, first compound 3.16 µM
[6] = second compound 0.0316 µM, first compound 10 µM
[7] = second compound 0.1 µM, first compound 0.0316 µM
[8] = second compound 0.1 µM, first compound 0.1 µM
[9] = second compound 0.1 µM, first compound 0.316 µM
[10] = second compound 0.1 µM, first compound 1 µM
[11] = second compound 0.1 µM, first compound 3.16 µM
[12] = second compound 0.1 µM, first compound 10 µM
[13] = second compound 0.316 µM, first compound 0.0316 µM
[14] = second compound 0.316 µM, first compound 0.1 µM
[15] = second compound 0.316 µM, first compound 0.316 µM
[16] = second compound 0.316 µM, first compound 1 µM
[17] = second compound 0.316 µM, first compound 3.16 µM
[18] = second compound 0.316 µM, first compound 10 µM
[19] = second compound 1 µM, first compound 0.0316 µM
[20] = second compound 1 µM, first compound 0.1 µM
[21] = second compound 1 µM, first compound 0.316 µM
[22] = second compound 1 µM, first compound 1 µM
[23] = second compound 1 µM, first compound 3.16 µM
[24] = second compound 1 µM, first compound 10 µM
[25] = second compound 3.16 µM, first compound 0.0316 µM
[26] = second compound 3.16 µM, first compound 0.1 µM
[27] = second compound 3.16 µM, first compound 0.316 µM
[28] = second compound 3.16 µM, first compound 1 µM
[29] = second compound 3.16 µM, first compound 3.16 µM
[30] = second compound 3.16 µM, first compound 10 µM
[31] = second compound 10 µM, first compound 0.0316 µM
[32] = second compound 10 µM, first compound 0.1 µM
[33] = second compound 10 µM, first compound 0.316 µM
[34] = second compound 10 µM, first compound 1 µM
[35] = second compound 10 µM, first compound 3.16 µM
[36] = second compound 10 µM, first compound 10 µM
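Note: spheroids exposed to compounds for one week.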
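Throughout, for viability, T/C: 100% = vehicle DMSO treated spheroids.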

C#Cc1c(F)ccc2cc(O)cc(-c3ncc4c(N5CC6CCC(C5)N6)nc(OCC56CCCN5CC(F)C6)nc4c3F)c12 (stereo unspecified) + COC1C(OC(N)=O)C(O)C(Oc2ccc3c(O)c(NC(=O)c4ccc(O)c(CC=C(C)C)c4)c(=O)oc3c2C)OC1(C)C
IC50 (second compound 0.0316 µM): > 10 µM
IC50 (second compound 0.1 µM): > 10 µM
IC50 (second compound 0.316 µM): > 10 µM
IC50 (second compound 1 µM): > 10 µM
IC50 (second compound 3.16 µM): > 10 µM
IC50 (second compound 10 µM): > 10 µM
viability, T/C [1]: 108%
viability, T/C [2]: 92.2%
viability, T/C [3]: 104%
viability, T/C [4]: 104%
viability, T/C [5]: 111%
viability, T/C [6]: 98%
viability, T/C [7]: 100%
viability, T/C [8]: 104%
viability, T/C [9]: 95.1%
viability, T/C [10]: 99.7%
viability, T/C [11]: 104%
viability, T/C [12]: 98.7%
viability, T/C [13]: 108%
viability, T/C [14]: 98.8%
viability, T/C [15]: 102%
viability, T/C [16]: 107%
viability, T/C [17]: 107%
viability, T/C [18]: 102%
viability, T/C [19]: 104%
viability, T/C [20]: 97.5%
viability, T/C [21]: 111%
viability, T/C [22]: 109%
viability, T/C [23]: 103%
viability, T/C [24]: 103%
viability, T/C [25]: 103%
viability, T/C [26]: 95.5%
viability, T/C [27]: 101%
viability, T/C [28]: 105%
viability, T/C [29]: 103%
viability, T/C [30]: 102%
viability, T/C [31]: 112%
viability, T/C [32]: 102%
viability, T/C [33]: 103%
viability, T/C [34]: 100%
viability, T/C [35]: 98.7%
viability, T/C [36]: 111%

C=CC(=O)N1CCN(c2nc(=O)n(-c3c(C)ccnc3C(C)C)c3nc(-c4c(O)cccc4F)c(F)cc23)C(C)C1 (stereo unspecified) + COC1C(OC(N)=O)C(O)C(Oc2ccc3c(O)c(NC(=O)c4ccc(O)c(CC=C(C)C)c4)c(=O)oc3c2C)OC1(C)C
IC50 (second compound 0.0316 µM): > 10 µM
IC50 (second compound 0.1 µM): > 10 µM
IC50 (second compound 0.316 µM): > 10 µM
IC50 (second compound 1 µM): > 10 µM
IC50 (second compound 3.16 µM): > 10 µM
IC50 (second compound 10 µM): > 10 µM
viability, T/C [1]: 109%
viability, T/C [2]: 92.4%
viability, T/C [3]: 102%
viability, T/C [4]: 97.1%
viability, T/C [5]: 104%
viability, T/C [6]: 86.4%
viability, T/C [7]: 102%
viability, T/C [8]: 104%
viability, T/C [9]: 103%
viability, T/C [10]: 102%
viability, T/C [11]: 99.9%
viability, T/C [12]: 81.7%
viability, T/C [13]: 102%
viability, T/C [14]: 97.3%
viability, T/C [15]: 106%
viability, T/C [16]: 101%
viability, T/C [17]: 107%
viability, T/C [18]: 84.8%
viability, T/C [19]: 98.4%
viability, T/C [20]: 99.3%
viability, T/C [21]: 104%
viability, T/C [22]: 113%
viability, T/C [23]: 105%
viability, T/C [24]: 89.2%
viability, T/C [25]: 102%
viability, T/C [26]: 101%
viability, T/C [27]: 105%
viability, T/C [28]: 106%
viability, T/C [29]: 106%
viability, T/C [30]: 80.7%
viability, T/C [31]: 107%
viability, T/C [32]: 103%
viability, T/C [33]: 96%
viability, T/C [34]: 106%
viability, T/C [35]: 95.8%
viability, T/C [36]: 86.7%

CCc1cc2c(N3CCc4c(cc(Cn5ccnc5)cc4-c4cn(C)nc4C(F)(F)F)C3=O)cc(C)nc2c(OC)n1 + COC1C(OC(N)=O)C(O)C(Oc2ccc3c(O)c(NC(=O)c4ccc(O)c(CC=C(C)C)c4)c(=O)oc3c2C)OC1(C)C
IC50 (second compound 0.0316 µM): > 10 µM
IC50 (second compound 0.1 µM): > 10 µM
IC50 (second compound 0.316 µM): > 10 µM
IC50 (second compound 1 µM): > 10 µM
IC50 (second compound 3.16 µM): > 10 µM
IC50 (second compound 10 µM): > 10 µM
viability, T/C [1]: 111%
viability, T/C [2]: 110%
viability, T/C [3]: 94.5%
viability, T/C [4]: 98.2%
viability, T/C [5]: 77.7%
viability, T/C [6]: 53.4%
viability, T/C [7]: 106%
viability, T/C [8]: 111%
viability, T/C [9]: 97.7%
viability, T/C [10]: 98.8%
viability, T/C [11]: 73.7%
viability, T/C [12]: 59.3%
viability, T/C [13]: 112%
viability, T/C [14]: 108%
viability, T/C [15]: 98.7%
viability, T/C [16]: 96.9%
viability, T/C [17]: 79.5%
viability, T/C [18]: 49.4%
viability, T/C [19]: 124%
viability, T/C [20]: 105%
viability, T/C [21]: 108%
viability, T/C [22]: 93.4%
viability, T/C [23]: 75.5%
viability, T/C [24]: 52.9%
viability, T/C [25]: 109%
viability, T/C [26]: 111%
viability, T/C [27]: 103%
viability, T/C [28]: 98.2%
viability, T/C [29]: 82%
viability, T/C [30]: 54.4%
viability, T/C [31]: 108%
viability, T/C [32]: 110%
viability, T/C [33]: 98.4%
viability, T/C [34]: 91.4%
viability, T/C [35]: 67.3%
viability, T/C [36]: 50.8%
